Ki data for 23 compounds are collected here from patent US10807959B2, “WDR5-MLL1 inhibitors and modulators” (Vanderbilt University, priority 2018, dated 2020).

As a reminder, the Ki is the equilibrium dissociation constant of an inhibitor or competing ligand from its target. A high value points to lower affinity.

In this assay the target is WDR5 (Homo sapiens (Human), UniProt P61964). In words: TR-FRET binding assay, displacement of 10mer-Thr-FAM probe from His-tagged WDR5. Particulars: Inhibition of WDR5 by TR-FRET assay. The protocol: The LanthaScreenTM Elite Tb-anti-HIS Antibody from ThermoFisher Scientific was used for this purpose. […] The ratio of the 520 and 495 signals are then utilized to generate a dose-response curve to calculate an IC50 value. […] WDR[…] tag protein is used at 2 nM.
A general note: In TR-FRET formats the signal depends on donor and acceptor labels being close together.
`COc1cc(OC)cc(C(C)NC(=O)c2cc(CNC3=NCCN3)cc(-c3ccc(F)cc3C)c2)c1` (racemic) [Example 1, (±)-5-(((4,5-dihydro-1H-imidazol-2-yl)amino)methyl)-N-(1-(3,5-dimethoxyphenyl)ethyl)-4′-fluoro-2′-methyl-[1,1′-biphenyl]-3-carboxamide] registered a Ki of 0.46 nM.

As to `COc1ccc(CNC(=O)c2cc(CNC3=NCCN3)cc(-c3ccc(F)nc3C)c2)cc1OC` [Example 4, 3-(((4,5-Dihydro-1H-imidazol-2-yl)amino)methyl)-N-(3,4-dimethoxybenzyl)-5-(6-fluoro-2-methylpyridin-3-yl)benzamide], the inhibition constant Ki was determined as 0.36 nM.

`Cc1cc(CNC(=O)c2cc(CNC3=NCCN3)cc(-c3ccc(F)nc3C)c2)ccc1Cl` [Example 5, N-(4-chloro-3-methylbenzyl)-3-(((4,5-dihydro-1H-imidazol-2-yl)amino)methyl)-5-(6-fluoro-2-methylpyridin-3-yl)benzamide] yielded a Ki of 0.02 nM.

In the case of `Cc1cc(C)cc(CNC(=O)c2cc(CNC3=NCCN3)cc(-c3ccc(F)nc3C)c2)c1` [Example 6, 3-(((4,5-Dihydro-1H-imidazol-2-yl)amino)methyl)-N-(3,5-dimethylbenzyl)-5-(6-fluoro-2-methylpyridin-3-yl)benzamide], the Ki stood at 0.14 nM. Compared with the last compound, the Ki is about 7-fold higher.

In turn, `COc1cc(CN(C)C(=O)c2cc(CNC3=NCCN3)cc(-c3ccc(F)nc3C)c2)cc(OC)c1` [Example 8, 3-(((4,5-Dihydro-1H-imidazol-2-yl)amino)methyl)-N-(3,5-dimethoxybenzyl)-5-(6-fluoro-2-methylpyridin-3-yl)-N-methylbenzamide] returned a Ki of 12 nM. Against the preceding compound, the Ki is about 86-fold higher.

For `Cc1ccnc(C(NC(=O)c2cc(CNC3=NCCN3)cc(-c3ccc(F)nc3C)c2)C2CC2)c1` (centres unmarked) [Example 9, N-(Cyclopropyl(4-methylpyridin-2-yl)methyl)-3-(((4,5-dihydro-1H-imidazol-2-yl)amino)methyl)-5-(6-fluoro-2-methylpyridin-3-yl)benzamide], the Ki is below 0.1 nM.

The compound `Cc1nc(F)ccc1-c1cc(CNC2=NCCN2)cc(C(=O)NC(C2CC2)C2CC2)c1` [Example 10, N-(dicyclopropylmethyl)-3-(((4,5-dihydro-1H-imidazol-2-yl)amino)methyl)-5-(6-fluoro-2-methylpyridin-3-yl)benzamide] showed an inhibition constant Ki of 2.9 nM.

Turning to `COc1ccnc(CNC(=O)c2cc(CNC3=NCCN3)cc(-c3ccc(F)nc3C)c2)c1` [Example 11, 3-(((4,5-Dihydro-1H-imidazol-2-yl)amino)methyl)-5-(6-fluoro-2-methylpyridin-3-yl)-N-((4-methoxypyridin-2-yl)methyl)benzamide], the affinity corresponds to a Ki of 0.22 nM.

Take `Cc1ccncc1-c1cc(CNC2=NCCN2)cc(C(=O)NCc2ccc(Cl)c(Cl)c2)c1` [Example 12, N-(3,4-dichlorobenzyl)-3-(((4,5-dihydro-1H-imidazol-2-yl)amino)methyl)-5-(4-methylpyridin-3-yl)benzamide]: the inhibition constant (Ki) was below 0.1 nM.

Compound `COc1cc(CNC(=O)c2cc(CNC3=NCCN3)cc(-c3cnccc3C)c2)cc(OC)c1` [Example 13, 3-(((4,5-dihydro-1H-imidazol-2-yl)amino)methyl)-N-(3,5-dimethoxybenzyl)-5-(4-methylpyridin-3-yl)benzamide] had a Ki of 0.53 nM.

The compound `COc1ccc(CNC(=O)c2cc(CNC3=NCCN3)cc(-c3cnccc3C)c2)cc1Cl` [Example 14, N-(3-chloro-4-methoxybenzyl)-3-(((4,5-dihydro-1H-imidazol-2-yl)amino)methyl)-5-(4-methylpyridin-3-yl)benzamide] came in with an inhibition constant (Ki) of 0.74 nM.

`COc1ccc(CNC(=O)c2cc(CNC3=NCCN3)cc(-c3ccnc(C)c3)c2)cc1OC` [Example 15, 3-(((4,5-dihydro-1H-imidazol-2-yl)amino)methyl)-N-(3,4-dimethoxybenzyl)-5-(2-methylpyridin-4-yl)benzamide] returned a Ki of 1.7 nM.

Consider `Cc1cc(-c2cc(CNC3=NCCN3)cc(C(=O)NCc3cc(F)cc(Cl)c3)c2)ccn1` [Example 16, N-(3-chloro-5-fluorobenzyl)-3-(((4,5-dihydro-1H-imidazol-2-yl)amino)methyl)-5-(2-methylpyridin-4-yl)benzamide], for which the affinity corresponds to a Ki of 0.52 nM.

Take `COc1cc(CNC(=O)c2cc(CNC3=NCCN3)cc(-c3ccnc(C)c3)c2)ccc1Cl` [Example 17, N-(4-chloro-3-methoxybenzyl)-3-(((4,5-dihydro-1H-imidazol-2-yl)amino)methyl)-5-(2-methylpyridin-4-yl)benzamide]: affinity was put at a Ki of 3.2 nM.

For `COc1cc(CNC(=O)c2cc(CNC3=NCCN3)cc(-c3cnccc3C)c2)ccc1Cl` [Example 18, N-(4-Chloro-3-methoxybenzyl)-3-(((4,5-dihydro-1H-imidazol-2-yl)amino)methyl)-5-(4-methylpyridin-3-yl)benzamide], affinity was put at a Ki of 3.1 nM. This Ki and that of the compound before are within 1.5-fold of each other.

`COc1ccnc(CNC(=O)c2cc(CNC3=NCCN3)cc(-c3cnccc3C)c2)c1` [Example 19, 3-(((4,5-Dihydro-1H-imidazol-2-yl)amino)methyl)-N-((4-methoxypyridin-2-yl)methyl)-5-(4-methylpyridin-3-yl)benzamide] gave a Ki of 0.45 nM.

Consider `COc1cc(OC)cc(C(C)NC(=O)c2cc(CNC3=NCCN3)cc(-c3cnccc3C)c2)c1` (centres unmarked) [Example 20, 3-(((4,5-dihydro-1H-imidazol-2-yl)amino)methyl)-N-(1-(3,5-dimethoxyphenyl)ethyl)-5-(4-methylpyridin-3-yl)benzamide], for which the affinity corresponds to a Ki of 0.6 nM.

`COc1ccnc(CNC(=O)c2cc(CNC3=NCCN3)cc(-c3ccnc(C)c3)c2)c1` [Example 21, 3-(((4,5-Dihydro-1H-imidazol-2-yl)amino)methyl)-N-((4-methoxypyridin-2-yl)methyl)-5-(2-methylpyridin-4-yl)benzamide] had a Ki of 0.39 nM.

Compound `Cc1cc(-c2cc(CNC3=NCCN3)cc(C(=O)NCc3cc(Cl)ccn3)c2)ccn1` [Example 22, N-((4-chloropyridin-2-yl)methyl)-3-(((4,5-dihydro-1H-imidazol-2-yl)amino)methyl)-5-(2-methylpyridin-4-yl)benzamide] gave a Ki of 0.28 nM.

For `COc1ccc(CNC(=O)c2cc(CNC3=NCCN3)cc(-c3ccnc(C)c3)c2)cc1Cl` [Example 23, N-(3-chloro-4-methoxybenzyl)-3-(((4,5-dihydro-1H-imidazol-2-yl)amino)methyl)-5-(2-methylpyridin-4-yl)benzamide], the Ki was 1.3 nM.

In turn, `Cc1ccncc1-c1cc(CNC2=NCCN2)cc(C(=O)NCc2cc(F)cc(Cl)c2)c1` [Example 24, N-(3-chloro-5-fluorobenzyl)-3-(((4,5-dihydro-1H-imidazol-2-yl)amino)methyl)-5-(4-methylpyridin-3-yl)benzamide] displayed a Ki of 0.37 nM.

Compound `Cc1ccnc(C(NC(=O)c2cc(CNC3=NCCN3)cc(-c3cnccc3C)c2)C2CC2)c1` (centres unmarked) [Example 25, N-(cyclopropyl(4-methylpyridin-2-yl)methyl)-3-(((4,5-dihydro-1H-imidazol-2-yl)amino)methyl)-5-(4-methylpyridin-3-yl)benzamide] showed a Ki of 0.2 nM.

For `Cc1ccc(CNC(=O)c2cc(CNC3=NCCN3)cc(-c3ccnc(C)c3)c2)cn1` [Example 26, 3-(((4,5-dihydro-1H-imidazol-2-yl)amino)methyl)-N-((6-methylpyridin-3-yl)methyl)-5-(2-methylpyridin-4-yl)benzamide], the Ki came to 3 nM.
